# Columns and labels:
# Assay type in all cases: physicochemical
# [1] = Antisolvent crystallization of o-ABA in the microfluidic mixer, merged and separated inlet designs
# Source text: The crystals were formed at room temperature using ethanol as solvent and water as antisolvent. The microfluidic system was configured to have a cyclone-shaped geometry.
# The microfluidic device was placed on the temperature-controlled stage of the optical microscope (Olympus BX53M, Olympus America Inc.). The o-ABA dissolved in ethanol and pure water was pumped separately into the microfluidic device using programmed syringe pumps (NE-4000, New Era Pump System Inc.). The flow rates of the o-ABA-ethanol solution and pure water were adjusted to achieve the desired supersaturations (S=1.2, 1.9, and 2.5), which were determined using the solubility curve of form I of o-ABA crystals. The inlets of the microfluidic device were connected with one-way check valves to avoid backflow from the mixer. The time-lapse images of the crystallization compartment were recorded using a built-in color camera (LC 30, Olympus America Inc.) of the optical microscope under the reflected light mode, which are also processed using MATLAB (MATLAB 9.3, The MathWorks Inc.) to measure growth rates and particle size distribution. The polymorphs of o-ABA at different supersaturations (S=1.2, 1.9, and 2.5) were identified using (i) distinct morphological features, such as form I having a prismatic morphology whereas form II has a needle-like morphology, and (ii) X-ray diffraction (XRD) experiments on a Bruker DISCOVER diffractometer with Cu Kα radiation.
# The antisolvent crystallization of o-ABA was studied with a merged inlet design (FIG. 5) and results were compared with a separated inlet design. FIG. 11, panels A-H show the micrographs of the samples obtained from antisolvent crystallization of o-ABA in the ethanol-water mixture at two different supersaturations (S=1.2 and S=1.9). The relative relationship between the form and morphology of o-ABA allows for instant detection of each polymorph with the in-situ analysis.
# [2] = Polymorph and morphology screening of L-histidine in a batch 96 well plate, single injection
# Source text: (§1) With eight different microfluidic mixers accommodated on a single chip, eight different supersaturations were studied for polymorph and morphology screening of L-histidine. The results of the continuous flow microfluidic crystallizer were further compared with a batch 96 well plate system with single injection of the solutions in a 96 well plate system. Supersaturation adjustments were done by either changing the initial concentration of the API solution and maintaining a constant ratio for the solvent and antisolvent (1:1) or varying the ratios of two mixing streams for constant initial concentration of API in the solvent. Ratios of solvent and antisolvent were controlled by controlling the flowrates of each stream, respectively.
# A low supersaturation degree existed in the wells D, C, and H, where supersaturation was respectively 1.74, 1.14 and 1.15. For a medium range of the supersaturations, well B with S=2.28 and well G with S=2 were evaluated. The other three remaining wells, A, E and F represents the high supersaturation range with S=2.57, […], 3.14 respectively. Identical supersaturations for wells A to H were applied to a batch 96 well plate and optical images were collected after 5 and 30 minutes and shown in the micrographs A2 to H2 and A4 to H4.
# In order to measure the growth rate for polymorphs of L-histidine at different supersaturations, time-lapsed images of each sample were taken each 60, 120 or 300 seconds after the crystals were first observed within the crystallization zone. […] To confirm the crystal faces, the crystallography of the polymorph B was imported into WINXMORPH and 3 final models were simulated for existing form B in the samples. The growth rate measurements of the form A crystals, however was done by measuring the distance between the two longest faces due to the significant aspect ratio of the two dominant faces of this crystal form. Using MATLAB (MATLAB 9.3, The MathWorks Inc.) the ratio of the polymorphic form A was measured for the eight samples in both continuous flow crystallizer as well as the batch 96 well plate system. […]
# [3] = Polymorph and morphology screening of L-histidine by antisolvent crystallization in the continuous-flow multi-well microfluidic mixer; conditions: for polymorphic form obtained: water solvent, ethanol antisolvent, room temperature
# Experimental: The L-histidine crystals were formed at room temperature with water as the solvent and ethanol as the antisolvent, wherein the microfluidic system was configured to have a cyclone-shaped geometry.
# The multi-well microfluidic mixer device was placed on a temperature-controlled stage of the optical microscope (Olympus BX53M, Olympus America Inc.). A saturated solution of L-histidine in water was prepared for the solubility measurement experiment at room temperature.
# Eight different syringes were filled with solutions of L-histidine in the water at known concentrations as the source of solvent streams and the other eight syringes were filled with ethanol as antisolvent streams. Syringes were then inserted into 4 programmed syringe pumps (NE-4000, New Era Pump System Inc.). Inlets were connected to one-way microfluidic check valves to prevent backflow inside the channels.
# All the microscopic images were recorded with a built-in color camera (LC 30, Olympus America Inc.) using reflected light mode. Capturing time-lapsed images and the growth rate analysis was performed for different samples. Further, these images were processed through MATLAB (MATLAB 9.3, The MathWorks Inc.) for form percentage measurements. L-histidine has two polymorphic form with different crystal habits reported in the literature.
# After benchmarking the merged inlet geometry and observing the consistency between the two discussed geometry, the multiwell screening system 10 generally shown in FIG. 4 and using the eight microfluidic chambers 100 having the merged inlet geometry of FIG. 5 was used to perform a parallel screening of L-histidine.
# as §1
# L-histidine with the two polymorphic forms of form A (stable) and form B (metastable) was selected for the parallel screening. The disclosed microfluidic system provides for the instantaneous, in-situ analysis of the polymorphic change. The studied supersaturations were divided into three regions of low, medium and high supersaturations to understand the effect of the supersaturation ratio on the polymorphic form ratios. […]
crystal size distribution ([2]; batch 96 well plate),"polymorphic form obtained ([2]; high supersaturation, batch 96 well plate)",growth rates of crystals over the time of the measurements ([2]; identical samples in the batch system),"growth rates of crystals at similar supersaturation ([3]; continuous microfluidic mixer, time-lapsed images)",polymorphic form obtained ([3]; supersaturations below 2.3 (low and medium ranges)),polymorphic form obtained ([3]; supersaturations higher than 2.3),Compound,"polymorphic form obtained ([1]; S=1.9, merged inlets geometry)","polymorphic transformation during the experiment ([1]; S=1.9, merged inlets geometry, constant supersaturation)","polymorphic form obtained ([1]; lower supersaturations, ethanol-water mixture)",crystal size distribution ([3]; continuous microfluidic mixer)
,,,,,,"Nc1ccccc1C(=O)O [o-ABA, o-aminobenzoic acid]",metastable form II was obtained,did not transform to the stable form,crystals of polymorphic form I are obtained,
wide range of size distribution,a mixture of both polymorphic forms,decrease significantly,almost constant,a mixture of forms A and B,only crystallizes in form B,N[C@@H](Cc1c[nH]cn1)C(=O)O [L-histidine],,,,more uniform and have a narrower size distribution

# — US12370463B2, “Continuous-flow, well mixed, microfluidic crystallization device for screening polymorphs, morphologies and crystallization kinetics at controlled supersaturation” (THE BOARD OF TRUSTEES OF THE UNIVERSITY OF ILLINOIS, priority 2019, dated 2025)
